From patent publication US6391301B1, “Agent for identifying and treating metastasizing tumors” (Forschungszentrum Karlsruhe GmbH, priority 1998, dated 2002) come the findings set out here.

The test system of this experiment is M-N#1 antibody binding to proteins in lysates from MT-450 cells. Kind of experiment: Competition of M-N#1 binding with fucose and galactose (immunoprecipitation). Set-up: species or system rat. The settings on record: increasing amounts of sugar, lysates from radiolabelled MT-450 cells. The protocol: Immunoprecipitation: cells were labeled by incubation with (^35S)L-methionine ([…]) in methionine-free RPMI medium supplemented with dialyzed FCS for 4 h. For a pulse-chase analysis, cells were incubated with (^35S)L-methionine ([…]) in methionine-free RPMI medium supplemented with dialyzed FCS for 15 minutes, then washed and incubated further with methionine-containing medium. For immunoprecipitations, cells were lyzed in RIPA (radioimmunoprecipitation) buffer, and aliquots were immunoprecipitated with 5 μg of antibodies. To purify proteins which bind to Ulex europaeus lectin, the cells were lyzed with PBS/1% NP40/1 mM PMSF and centrifuged, and the lysates were incubated with Ulex europaeus lectin beads at 4° C. for one hour. The beads were then washed three times with PBS, and the excess buffer was removed. The beads were boiled in 1% SDS/20 mM phosphate at pH 7.0. A 20-fold excess of RIPA buffer was then added, and the supernatant was used for the immunoprecipitation after removal of the Ulex europaeus lectin beads. In experiments in which immunoprecipitated proteins were treated with 0.5 U of N-glycosidase F, 2.5 mU of O-glycosidase or 5 mU of neuraminidase, the antigen-antibody matrix bead complex was initially washed in 100 mM phosphate buffer, pH 7.0. Buffer was removed and then the matrix beads were boiled in 5 μl of 1% SDS/20 mM phosphate, pH 7.0, for 5 minutes. The enzymes were then added in 45 μl of 20 mM phosphate buffer (pH 7.0)/1 mM CaSO4. The efficiency of the enzyme reaction was confirmed by comparison with similar digestive processes on immunoprecipitated CD44v4-v7 protein, which is digested by each of said enzymes. Immunoprecipitated proteins were removed by SDS (sodium dodecyl sulfate) PAGE (polyacrylamide gel electrophoresis). Gels were treated with PPO (2,5-diphenyloxazole) and exposed to X-ray sensitive film material.
Competition of M-N#1 binding with fucose and galactose. […]
`C[C@H](O)[C@@H](O)[C@@H](O)[C@H](O)C=O` [L-Fucose]: the “Effect on protein binding to M-N#1 antibody” value was “no effect”.

On to `C[C@@H](O)[C@H](O)[C@H](O)[C@@H](O)C=O` [D-fucose], for which the “Effect on protein binding to M-N#1 antibody” value is “inhibited”. Under `O=C[C@H](O)[C@@H](O)[C@@H](O)[C@H](O)CO` [D-galactose] stands “inhibited”.
